# Source: patent US20230049952A1, “METHODS AND COMPOUNDS FOR RESTORING MUTANT P53 FUNCTION” (PMV Pharmaceuticals, Inc., priority 2020, published 2023)
# Read-outs that look alike come from different tables or passages of the source.
# Tests used:
# [1] = biological target: p53 Y220C in MT373 tumors (Homo sapiens, UniProt P04637, Y220C); assay: MT373 syngeneic sarcoma model: mutant, WT and total p53 ELISA in tumors; assay type: in vivo, mouse; details: for Mutant p53 Protein, Percent Reduction Relative to Vehicle Control / Total p53 Protein, Percent Reduction Relative to Vehicle Control / WT p53 Protein, Fold Change over Vehicle Control: MT373 tumors
# Experimental: Tumor Lysate Preparation: Lysis buffer was added to tumor samples and homogenized using a TissueLyser LT. Homogenized samples were spun by centrifuge for 30 minutes at 20817×g, and the supernatant transferred to a 1.5-mL tube. Protein samples were quantified, aliquoted into 96-well plates, and stored at −80° C.
# Tumor lysates were diluted in blocking buffer such that the required protein amount is added to the plate in a 100 μL volume (WT p53 7.5 μg; mutant p53 2.5 μg; Total p53 2.5 μg). […] Plates were washed, and the reaction was developed using TMB for approximately 5 minutes and quenched with 0.16 M sulfuric acid. […] A background measurement was subtracted from the treated samples' signals. The signals were normalized to the respective vehicle controls.
# BSEP = BSEP (Homo sapiens, UniProt O95342); assay: BSEP inhibition: TCA uptake into BSEP-expressing vesicles; assay type: in vitro ADME; details: 10 μM test article
# Experimental: An assay to measure BSEP-mediated TCA uptake into inside-out BSEP-expressing vesicles was used. […] The reaction was initiated by adding 5 mM ATP (adenosine 5′-triphosphate) as the energy source for BSEP. Negative controls were run in parallel, using 5 mM AMP (adenosine 5′-monophosphate) in place of ATP. The reactions were carried out in 96-well plates incubated in a humidified incubator (37° C. 5% CO2) for 30 minutes. After incubation, the vesicle-associated TCA and free TCA were separated by rapid filtration through a glass-fiber filter plate under vacuum.
# All samples were assayed by liquid chromatography-tandem mass spectrometry (LC-MS/MS) using electrospray ionization. Liquid Chromatography was performed using a Thermo BDS Hypersil C18 30×2.1 mm, 3 μm, with guard column. […] The Aqueous Reservoir (A) was 90% water, 10% buffer. The Organic Reservoir (B) was 90% acetonitrile, 10% buffer. The Flow Rate was 700 μL/minute. The Total Run Time for the liquid chromatography was 2.5 minutes. The Autosampler was 20 μL injection volume. The Autosampler Wash was water/methanol/2-propanol: 1/1/1; with 0.2% formic acid. Mass Spectrometry was performed on the PE SCIEX API 4000 instrument. The interface was Turbo Ionspray. The mode was Multiple reaction monitoring. The method was performed over 2.5 minute duration.
# [2] = for Plasma Conc. / Tumor Conc.: MT373 tumor-bearing mice
# [3] = 1 μM TCA, BSEP vesicles, 30 minutes
# Chain of BSEP (O95342 whole entry, species assumed): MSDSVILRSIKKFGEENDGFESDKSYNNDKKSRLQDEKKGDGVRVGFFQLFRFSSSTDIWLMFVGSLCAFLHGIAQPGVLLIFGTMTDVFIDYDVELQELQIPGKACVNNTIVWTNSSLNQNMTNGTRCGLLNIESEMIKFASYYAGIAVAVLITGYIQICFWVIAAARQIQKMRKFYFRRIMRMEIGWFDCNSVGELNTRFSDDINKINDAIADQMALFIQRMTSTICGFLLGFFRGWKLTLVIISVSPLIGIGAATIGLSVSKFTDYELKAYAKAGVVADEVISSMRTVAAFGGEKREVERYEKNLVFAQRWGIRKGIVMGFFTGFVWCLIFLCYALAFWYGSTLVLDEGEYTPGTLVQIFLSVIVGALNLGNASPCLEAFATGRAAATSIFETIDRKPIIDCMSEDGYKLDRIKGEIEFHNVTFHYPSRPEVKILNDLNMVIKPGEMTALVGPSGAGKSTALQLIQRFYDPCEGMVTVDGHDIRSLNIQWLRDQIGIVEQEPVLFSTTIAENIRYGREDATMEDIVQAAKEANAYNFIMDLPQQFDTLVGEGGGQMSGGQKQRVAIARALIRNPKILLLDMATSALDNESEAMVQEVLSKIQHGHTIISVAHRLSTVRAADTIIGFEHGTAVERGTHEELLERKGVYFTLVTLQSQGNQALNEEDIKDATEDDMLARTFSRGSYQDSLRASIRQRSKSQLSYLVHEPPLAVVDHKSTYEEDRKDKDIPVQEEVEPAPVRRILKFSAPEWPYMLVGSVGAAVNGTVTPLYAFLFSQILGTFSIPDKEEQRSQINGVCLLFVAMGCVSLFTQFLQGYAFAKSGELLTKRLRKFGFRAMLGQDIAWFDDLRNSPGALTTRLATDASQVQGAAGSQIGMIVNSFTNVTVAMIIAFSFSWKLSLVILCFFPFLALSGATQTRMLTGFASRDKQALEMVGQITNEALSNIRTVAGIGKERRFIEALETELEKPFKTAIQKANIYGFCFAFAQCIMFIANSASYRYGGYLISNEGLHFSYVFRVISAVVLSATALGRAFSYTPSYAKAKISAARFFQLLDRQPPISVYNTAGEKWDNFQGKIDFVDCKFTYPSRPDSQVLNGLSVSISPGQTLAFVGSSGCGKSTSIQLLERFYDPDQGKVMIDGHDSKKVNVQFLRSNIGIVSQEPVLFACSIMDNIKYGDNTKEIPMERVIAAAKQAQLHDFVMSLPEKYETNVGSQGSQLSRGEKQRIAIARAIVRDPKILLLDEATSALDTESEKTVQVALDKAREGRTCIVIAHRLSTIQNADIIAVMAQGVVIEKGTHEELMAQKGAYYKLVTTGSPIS
smiles,measurement,setting,value
"CCn1c(C#CCNc2ccccc2)cc2cc(CNC3CCN(C)CC3)ccc21 [Compound 1, 1-Anilino-3-{1-ethyl-5-[(1-methyl-4-piperidylamino)methyl]-1H-indol-2-yl}-2-propyne]","Mutant p53 Protein, Percent Reduction Relative to Vehicle Control","[1]; 75 mg/kg BIDx1 PO, 8 h",53.91%
same,"Total p53 Protein, Percent Reduction Relative to Vehicle Control","[1]; 75 mg/kg BIDx1 PO, 8 h",35.06%
same,"WT p53 Protein, Fold Change over Vehicle Control","[1]; 75 mg/kg BIDx1 PO, 8 h",1.25 fold
same,"Mutant p53 Protein, Percent Reduction Relative to Vehicle Control","[1]; 75 mg/kg BIDx1 PO, 24 h",79.50%
same,"Total p53 Protein, Percent Reduction Relative to Vehicle Control","[1]; 75 mg/kg BIDx1 PO, 24 h",72.38%
same,"WT p53 Protein, Fold Change over Vehicle Control","[1]; 75 mg/kg BIDx1 PO, 24 h",1.13 fold
same,"Mutant p53 Protein, Percent Reduction Relative to Vehicle Control","[1]; 75 mg/kg BIDx1 PO, 48 h",67.23%
same,"Total p53 Protein, Percent Reduction Relative to Vehicle Control","[1]; 75 mg/kg BIDx1 PO, 48 h",63.03%
same,"WT p53 Protein, Fold Change over Vehicle Control","[1]; 75 mg/kg BIDx1 PO, 48 h",1.02 fold
same,"Mutant p53 Protein, Percent Reduction Relative to Vehicle Control","[1]; 75 mg/kg BIDx1 PO, 72 h",16.87%
same,"Total p53 Protein, Percent Reduction Relative to Vehicle Control","[1]; 75 mg/kg BIDx1 PO, 72 h",19.65%
same,"WT p53 Protein, Fold Change over Vehicle Control","[1]; 75 mg/kg BIDx1 PO, 72 h",1.11 fold
same,"Mutant p53 Protein, Percent Reduction Relative to Vehicle Control","[1]; 75 mg/kg BIDx1 PO, 98 h",0.00%
same,"Total p53 Protein, Percent Reduction Relative to Vehicle Control","[1]; 75 mg/kg BIDx1 PO, 98 h",0.00%
same,"WT p53 Protein, Fold Change over Vehicle Control","[1]; 75 mg/kg BIDx1 PO, 98 h",1.13 fold
same,"Mutant p53 Protein, Percent Reduction Relative to Vehicle Control","[1]; 75 mg/kg BIDx1 PO, […]",45.58%
same,"Total p53 Protein, Percent Reduction Relative to Vehicle Control","[1]; 75 mg/kg BIDx1 PO, […]",44.67%
same,"WT p53 Protein, Fold Change over Vehicle Control","[1]; 75 mg/kg BIDx1 PO, […]",0.88 fold
same,increase in WT conformation p53,"[1]; 75 mg/kg BID×1 PO, 8 h",1.25 fold
same,"Mutant p53 Protein, Percent Reduction Relative to Vehicle Control","[1]; 150 mg/kg BIDx1 PO, 8 h",82.30%
same,"Total p53 Protein, Percent Reduction Relative to Vehicle Control","[1]; 150 mg/kg BIDx1 PO, 8 h",56.64%
same,"WT p53 Protein, Fold Change over Vehicle Control","[1]; 150 mg/kg BIDx1 PO, 8 h",1.45 fold
same,"Mutant p53 Protein, Percent Reduction Relative to Vehicle Control","[1]; 150 mg/kg BIDx1 PO, 24 h",93.74%
same,"Total p53 Protein, Percent Reduction Relative to Vehicle Control","[1]; 150 mg/kg BIDx1 PO, 24 h",81.75%
same,"WT p53 Protein, Fold Change over Vehicle Control","[1]; 150 mg/kg BIDx1 PO, 24 h",1.08 fold
same,"Mutant p53 Protein, Percent Reduction Relative to Vehicle Control","[1]; 150 mg/kg BIDx1 PO, 48 h",81.64%
same,"Total p53 Protein, Percent Reduction Relative to Vehicle Control","[1]; 150 mg/kg BIDx1 PO, 48 h",81.46%
same,"WT p53 Protein, Fold Change over Vehicle Control","[1]; 150 mg/kg BIDx1 PO, 48 h",0.94 fold
same,"Mutant p53 Protein, Percent Reduction Relative to Vehicle Control","[1]; 150 mg/kg BIDx1 PO, 72 h",58.64%
same,"Total p53 Protein, Percent Reduction Relative to Vehicle Control","[1]; 150 mg/kg BIDx1 PO, 72 h",60.43%
same,"WT p53 Protein, Fold Change over Vehicle Control","[1]; 150 mg/kg BIDx1 PO, 72 h",0.86 fold
same,"Mutant p53 Protein, Percent Reduction Relative to Vehicle Control","[1]; 150 mg/kg BIDx1 PO, 98 h",0.00%
same,"Total p53 Protein, Percent Reduction Relative to Vehicle Control","[1]; 150 mg/kg BIDx1 PO, 98 h",0.60%
same,"WT p53 Protein, Fold Change over Vehicle Control","[1]; 150 mg/kg BIDx1 PO, 98 h",0.95 fold
same,"Mutant p53 Protein, Percent Reduction Relative to Vehicle Control","[1]; 150 mg/kg BIDx1 PO, […]",34.14%
same,"Total p53 Protein, Percent Reduction Relative to Vehicle Control","[1]; 150 mg/kg BIDx1 PO, […]",32.40%
same,"WT p53 Protein, Fold Change over Vehicle Control","[1]; 150 mg/kg BIDx1 PO, […]",0.86 fold
same,increase in WT conformation p53,"[1]; 150 mg/kg BID×1 PO, 8 h",1.45 fold
same,BSEP Inhibition Potential Classification,BSEP,Negative (Percent inhibition <50%: Negative)
same,"TCA Concentration, Cofactor AMP, AVG","BSEP; 1 μM TCA, AMP negative control",1.97 nM
same,"TCA Concentration, Cofactor AMP, R1","BSEP; 1 μM TCA, AMP negative control",1.50 nM
same,"TCA Concentration, Cofactor ATP, AVG",BSEP; [3],85.5 nM
same,"TCA Concentration, Cofactor ATP, R1",BSEP; [3],87. nM
same,BSEP Inhibition Classification,BSEP; TCA 1 μM,negative
same,Percent Inhibition,BSEP; negative values reported as 0,0%
same,Plasma Conc.,"[2]; 75 mg/kg BIDx1 PO, 8 h",8375 ng/mL
same,Tumor Conc.,"[2]; 75 mg/kg BIDx1 PO, 8 h",30853 ng/g
same,Plasma Conc.,"[2]; 75 mg/kg BIDx1 PO, 24 h",1843 ng/mL
same,Tumor Conc.,"[2]; 75 mg/kg BIDx1 PO, 24 h",12035 ng/g
same,Plasma Conc.,"[2]; 75 mg/kg BIDx1 PO, 48 h",40 ng/mL
same,Tumor Conc.,"[2]; 75 mg/kg BIDx1 PO, 48 h",318 ng/g
same,Plasma Conc.,"[2]; 75 mg/kg BIDx1 PO, 72 h",0 ng/mL
same,Tumor Conc.,"[2]; 75 mg/kg BIDx1 PO, 72 h",97 ng/g
same,Plasma Conc.,"[2]; 75 mg/kg BIDx1 PO, 98 h",0 ng/mL
same,Tumor Conc.,"[2]; 75 mg/kg BIDx1 PO, 98 h",0 ng/g
same,plasma concentration,"[2]; 75 mg/kg BID×1 PO, 8 h (Cmax)",8375 ng/mL
same,plasma concentration,"[2]; 75 mg/kg BID×1 PO, 24 h",1843 ng/mL
same,Plasma Conc.,"[2]; 150 mg/kg BIDx1 PO, 8 h",11435 ng/mL
same,Tumor Conc.,"[2]; 150 mg/kg BIDx1 PO, 8 h",57645 ng/g
same,Plasma Conc.,"[2]; 150 mg/kg BIDx1 PO, 24 h",5986 ng/mL
same,Tumor Conc.,"[2]; 150 mg/kg BIDx1 PO, 24 h",67778 ng/g
same,Plasma Conc.,"[2]; 150 mg/kg BIDx1 PO, 48 h",268 ng/mL
same,Tumor Conc.,"[2]; 150 mg/kg BIDx1 PO, 48 h",2436 ng/g
same,Plasma Conc.,"[2]; 150 mg/kg BIDx1 PO, 72 h",7 ng/mL
same,Tumor Conc.,"[2]; 150 mg/kg BIDx1 PO, 72 h",59 ng/g
same,Plasma Conc.,"[2]; 150 mg/kg BIDx1 PO, 98 h",3 ng/mL
same,Tumor Conc.,"[2]; 150 mg/kg BIDx1 PO, 98 h",23 ng/g
same,plasma concentration,"[2]; 150 mg/kg BID×1 PO, 8 h (Cmax)",11435 ng/mL
same,plasma concentration,"[2]; 150 mg/kg BID×1 PO, 24 h",5986 ng/mL
